Data as given in ChEMBL document CHEMBL5465560, “Selectivity Literature for EUbOPEN Chemogenomic Library” (2024).

Columns and labels:
[1] = target: cAMP-dependent protein kinase catalytic subunit alpha (Homo sapiens, UniProt P17612); test: Selectivity interaction (KinomeScan (DiscoverX)) EUB0001049a PRKACA; conditions: at 1 µM
[2] = target: Tyrosine-protein kinase ABL1 (Homo sapiens, UniProt P00519); test: Selectivity interaction (Kinase panel (DSF assay)) EUB0001558a ABL1
[3] = target: Tyrosine-protein kinase receptor UFO (Homo sapiens) (UniProt P30530); test: Selectivity interaction (ActivX KiNativ screen (kinase selectivity in THP-1 cell lysates)) EUB0000639a AXL; type: subcellular; conditions: lysate
[4] = target: Cyclin-dependent kinase 11B (Homo sapiens) (UniProt P21127); test: Selectivity interaction (KinomeScan (DiscoverX)) EUB0000092b CDK11B; conditions: at 10 µM
[5] = target: T1, Receptor-interacting serine/threonine-protein kinase 4 (Homo sapiens) (UniProt P57078); conditions: at 10 µM
T1 sequence (whole entry): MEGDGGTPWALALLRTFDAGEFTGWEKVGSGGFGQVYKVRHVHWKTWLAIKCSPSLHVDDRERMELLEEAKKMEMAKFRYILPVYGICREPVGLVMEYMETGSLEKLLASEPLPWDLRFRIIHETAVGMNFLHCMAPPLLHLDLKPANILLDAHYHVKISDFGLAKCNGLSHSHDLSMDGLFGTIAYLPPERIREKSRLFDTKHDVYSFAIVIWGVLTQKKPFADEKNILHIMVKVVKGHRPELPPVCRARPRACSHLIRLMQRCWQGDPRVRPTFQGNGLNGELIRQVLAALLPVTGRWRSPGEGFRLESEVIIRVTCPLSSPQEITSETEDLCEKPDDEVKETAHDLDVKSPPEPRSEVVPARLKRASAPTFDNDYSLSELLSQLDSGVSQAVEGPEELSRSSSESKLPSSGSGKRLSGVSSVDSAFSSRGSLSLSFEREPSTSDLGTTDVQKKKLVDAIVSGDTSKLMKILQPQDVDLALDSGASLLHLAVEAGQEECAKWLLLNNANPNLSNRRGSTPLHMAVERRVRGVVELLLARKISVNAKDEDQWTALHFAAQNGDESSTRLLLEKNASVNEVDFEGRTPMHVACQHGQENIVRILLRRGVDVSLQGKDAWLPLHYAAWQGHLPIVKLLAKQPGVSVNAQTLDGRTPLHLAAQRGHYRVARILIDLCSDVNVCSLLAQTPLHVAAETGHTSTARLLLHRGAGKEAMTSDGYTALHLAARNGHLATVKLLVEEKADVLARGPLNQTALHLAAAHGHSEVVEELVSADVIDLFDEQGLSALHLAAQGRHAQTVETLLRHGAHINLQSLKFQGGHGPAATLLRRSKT

[6] = target: Calcium/calmodulin-dependent protein kinase type 1 (Homo sapiens) (UniProt Q14012); test: Selectivity interaction (Upstate Kinase Profiler service (Millipore)) EUB0000056c CAMK1; conditions: at 1 µM
[7] = target: T2, Mitogen-activated protein kinase kinase kinase 13 (Homo sapiens) (UniProt O43283); test: Selectivity interaction (KinomeScan (DiscoverX)) EUB0000655a MAP3K13; conditions: at 10 µM
T2 sequence (whole entry): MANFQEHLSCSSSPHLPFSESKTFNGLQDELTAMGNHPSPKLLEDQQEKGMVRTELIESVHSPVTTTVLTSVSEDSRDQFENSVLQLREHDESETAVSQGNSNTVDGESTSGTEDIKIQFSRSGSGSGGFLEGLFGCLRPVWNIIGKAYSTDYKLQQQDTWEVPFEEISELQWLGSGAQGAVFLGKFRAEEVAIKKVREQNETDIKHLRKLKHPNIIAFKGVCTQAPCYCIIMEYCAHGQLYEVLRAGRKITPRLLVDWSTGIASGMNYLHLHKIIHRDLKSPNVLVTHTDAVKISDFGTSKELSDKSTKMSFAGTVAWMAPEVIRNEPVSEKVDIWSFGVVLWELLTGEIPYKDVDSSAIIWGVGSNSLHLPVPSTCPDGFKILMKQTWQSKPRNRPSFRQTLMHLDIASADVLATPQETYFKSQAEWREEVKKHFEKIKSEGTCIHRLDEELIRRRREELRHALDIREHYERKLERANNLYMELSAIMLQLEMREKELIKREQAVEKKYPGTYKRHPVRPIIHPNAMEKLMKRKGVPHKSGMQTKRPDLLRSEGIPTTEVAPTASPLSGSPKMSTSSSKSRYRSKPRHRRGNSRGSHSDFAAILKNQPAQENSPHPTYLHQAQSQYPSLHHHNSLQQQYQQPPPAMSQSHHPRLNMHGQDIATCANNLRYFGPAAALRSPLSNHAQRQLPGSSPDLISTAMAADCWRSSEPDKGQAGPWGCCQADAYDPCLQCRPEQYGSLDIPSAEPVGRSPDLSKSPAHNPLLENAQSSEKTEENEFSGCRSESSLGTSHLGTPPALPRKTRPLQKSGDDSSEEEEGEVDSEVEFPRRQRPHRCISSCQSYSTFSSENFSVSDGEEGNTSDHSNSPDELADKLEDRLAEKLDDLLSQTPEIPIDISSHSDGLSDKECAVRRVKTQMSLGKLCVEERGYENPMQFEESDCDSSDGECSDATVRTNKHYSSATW

[8] = target: T3, Protein kinase C iota type (Homo sapiens) (UniProt P41743); test: Selectivity interaction (KinomeScan (DiscoverX)) EUB0000607a PRKCI; conditions: at 10 µM
T3 sequence (whole entry): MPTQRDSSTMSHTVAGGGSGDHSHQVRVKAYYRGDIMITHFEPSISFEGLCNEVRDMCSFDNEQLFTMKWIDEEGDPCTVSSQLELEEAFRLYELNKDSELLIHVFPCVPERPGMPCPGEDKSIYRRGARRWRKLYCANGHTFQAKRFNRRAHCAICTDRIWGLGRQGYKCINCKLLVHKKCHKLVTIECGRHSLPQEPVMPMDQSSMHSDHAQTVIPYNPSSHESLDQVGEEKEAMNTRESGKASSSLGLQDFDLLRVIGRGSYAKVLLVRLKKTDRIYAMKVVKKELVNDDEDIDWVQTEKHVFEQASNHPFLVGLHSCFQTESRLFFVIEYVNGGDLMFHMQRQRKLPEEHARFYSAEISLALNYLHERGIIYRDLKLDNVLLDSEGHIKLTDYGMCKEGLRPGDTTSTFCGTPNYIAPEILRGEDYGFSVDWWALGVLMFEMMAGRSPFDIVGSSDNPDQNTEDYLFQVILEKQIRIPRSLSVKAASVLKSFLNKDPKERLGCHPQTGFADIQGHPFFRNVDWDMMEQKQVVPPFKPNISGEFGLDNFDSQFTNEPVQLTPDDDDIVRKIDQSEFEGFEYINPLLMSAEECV

[9] = target: Histone-lysine N-methyltransferase, H3 lysine-36 specific (Homo sapiens) (UniProt Q96L73); test: Selectivity interaction (Methyltransferase screen (radiometric assays, panel of 8 PRMTs, 21 protein lysine methyltransferases, 3 DNA methyltransferases, and one RNA methyltransferase)) EUB0000271b NSD1
Histone-lysine N-methyltransferase, H3 lysine-36 specific (Homo sapiens), sequence (Q96L73 whole entry): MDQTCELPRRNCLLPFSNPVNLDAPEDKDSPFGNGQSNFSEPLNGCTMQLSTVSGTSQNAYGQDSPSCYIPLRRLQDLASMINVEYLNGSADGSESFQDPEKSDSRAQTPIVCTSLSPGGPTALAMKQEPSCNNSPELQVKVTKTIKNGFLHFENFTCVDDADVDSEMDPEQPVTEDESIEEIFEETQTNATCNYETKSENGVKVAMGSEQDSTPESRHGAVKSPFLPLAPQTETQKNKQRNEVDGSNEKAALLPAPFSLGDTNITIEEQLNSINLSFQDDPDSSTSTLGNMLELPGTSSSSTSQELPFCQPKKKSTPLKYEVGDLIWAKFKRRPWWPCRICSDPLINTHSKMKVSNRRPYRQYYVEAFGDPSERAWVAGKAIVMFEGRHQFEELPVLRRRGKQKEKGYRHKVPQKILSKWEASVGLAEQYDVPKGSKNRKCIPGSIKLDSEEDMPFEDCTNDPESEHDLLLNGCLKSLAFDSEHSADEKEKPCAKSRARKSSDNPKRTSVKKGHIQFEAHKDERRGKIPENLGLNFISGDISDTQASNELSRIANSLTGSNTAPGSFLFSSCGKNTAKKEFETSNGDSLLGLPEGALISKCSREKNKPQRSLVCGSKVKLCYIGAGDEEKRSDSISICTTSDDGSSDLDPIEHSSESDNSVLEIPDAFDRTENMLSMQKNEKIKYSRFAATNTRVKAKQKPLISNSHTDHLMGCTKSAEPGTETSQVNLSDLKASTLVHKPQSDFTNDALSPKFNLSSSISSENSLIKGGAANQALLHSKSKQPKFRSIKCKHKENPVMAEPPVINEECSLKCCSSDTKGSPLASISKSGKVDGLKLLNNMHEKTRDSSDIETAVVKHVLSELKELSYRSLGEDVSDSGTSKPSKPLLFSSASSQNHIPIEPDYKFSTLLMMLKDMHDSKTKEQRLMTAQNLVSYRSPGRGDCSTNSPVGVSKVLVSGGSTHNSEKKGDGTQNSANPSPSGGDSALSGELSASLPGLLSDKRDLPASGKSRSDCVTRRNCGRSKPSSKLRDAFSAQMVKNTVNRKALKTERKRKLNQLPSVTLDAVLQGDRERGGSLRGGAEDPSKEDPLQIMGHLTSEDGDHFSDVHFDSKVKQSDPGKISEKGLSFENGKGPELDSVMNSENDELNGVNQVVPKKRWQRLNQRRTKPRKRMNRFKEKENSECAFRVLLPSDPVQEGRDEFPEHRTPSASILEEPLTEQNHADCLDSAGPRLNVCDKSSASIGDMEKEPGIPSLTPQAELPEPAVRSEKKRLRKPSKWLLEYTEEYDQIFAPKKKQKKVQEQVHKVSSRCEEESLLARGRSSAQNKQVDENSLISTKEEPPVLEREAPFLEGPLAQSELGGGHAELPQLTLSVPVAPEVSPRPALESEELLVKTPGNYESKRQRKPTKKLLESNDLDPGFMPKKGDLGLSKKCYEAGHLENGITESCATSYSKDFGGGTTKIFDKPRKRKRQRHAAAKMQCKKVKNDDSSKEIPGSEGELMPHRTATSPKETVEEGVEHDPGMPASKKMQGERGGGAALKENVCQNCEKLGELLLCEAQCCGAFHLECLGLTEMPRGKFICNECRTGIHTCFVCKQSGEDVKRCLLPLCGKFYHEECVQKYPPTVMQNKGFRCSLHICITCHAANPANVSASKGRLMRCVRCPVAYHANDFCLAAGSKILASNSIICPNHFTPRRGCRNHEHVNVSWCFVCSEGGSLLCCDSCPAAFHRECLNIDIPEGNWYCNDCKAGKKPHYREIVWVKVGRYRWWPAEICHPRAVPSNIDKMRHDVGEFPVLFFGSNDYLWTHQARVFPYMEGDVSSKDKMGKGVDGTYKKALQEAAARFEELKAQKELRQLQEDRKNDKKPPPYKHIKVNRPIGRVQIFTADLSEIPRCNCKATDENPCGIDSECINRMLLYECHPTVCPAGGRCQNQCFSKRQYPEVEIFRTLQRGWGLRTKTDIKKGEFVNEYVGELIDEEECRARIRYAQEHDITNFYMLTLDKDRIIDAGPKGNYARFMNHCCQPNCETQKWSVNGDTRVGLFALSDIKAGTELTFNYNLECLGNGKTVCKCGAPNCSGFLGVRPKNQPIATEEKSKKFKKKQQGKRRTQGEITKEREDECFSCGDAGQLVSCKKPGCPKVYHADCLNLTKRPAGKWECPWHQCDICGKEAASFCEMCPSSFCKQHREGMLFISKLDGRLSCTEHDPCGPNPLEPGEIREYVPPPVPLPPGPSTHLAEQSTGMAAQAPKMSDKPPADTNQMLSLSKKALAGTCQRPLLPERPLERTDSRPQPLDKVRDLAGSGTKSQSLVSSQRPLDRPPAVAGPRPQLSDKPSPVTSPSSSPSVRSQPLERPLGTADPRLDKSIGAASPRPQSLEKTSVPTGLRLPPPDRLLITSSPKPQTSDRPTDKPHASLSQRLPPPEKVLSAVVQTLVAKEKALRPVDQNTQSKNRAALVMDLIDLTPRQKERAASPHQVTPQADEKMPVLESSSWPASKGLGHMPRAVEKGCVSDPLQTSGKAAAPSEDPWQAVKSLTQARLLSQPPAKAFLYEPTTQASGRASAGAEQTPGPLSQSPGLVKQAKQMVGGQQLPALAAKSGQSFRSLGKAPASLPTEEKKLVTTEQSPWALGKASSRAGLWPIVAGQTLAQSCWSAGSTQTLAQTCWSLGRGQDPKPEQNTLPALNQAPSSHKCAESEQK

Tyrosine-protein kinase receptor UFO (Homo sapiens), sequence (P30530 whole entry): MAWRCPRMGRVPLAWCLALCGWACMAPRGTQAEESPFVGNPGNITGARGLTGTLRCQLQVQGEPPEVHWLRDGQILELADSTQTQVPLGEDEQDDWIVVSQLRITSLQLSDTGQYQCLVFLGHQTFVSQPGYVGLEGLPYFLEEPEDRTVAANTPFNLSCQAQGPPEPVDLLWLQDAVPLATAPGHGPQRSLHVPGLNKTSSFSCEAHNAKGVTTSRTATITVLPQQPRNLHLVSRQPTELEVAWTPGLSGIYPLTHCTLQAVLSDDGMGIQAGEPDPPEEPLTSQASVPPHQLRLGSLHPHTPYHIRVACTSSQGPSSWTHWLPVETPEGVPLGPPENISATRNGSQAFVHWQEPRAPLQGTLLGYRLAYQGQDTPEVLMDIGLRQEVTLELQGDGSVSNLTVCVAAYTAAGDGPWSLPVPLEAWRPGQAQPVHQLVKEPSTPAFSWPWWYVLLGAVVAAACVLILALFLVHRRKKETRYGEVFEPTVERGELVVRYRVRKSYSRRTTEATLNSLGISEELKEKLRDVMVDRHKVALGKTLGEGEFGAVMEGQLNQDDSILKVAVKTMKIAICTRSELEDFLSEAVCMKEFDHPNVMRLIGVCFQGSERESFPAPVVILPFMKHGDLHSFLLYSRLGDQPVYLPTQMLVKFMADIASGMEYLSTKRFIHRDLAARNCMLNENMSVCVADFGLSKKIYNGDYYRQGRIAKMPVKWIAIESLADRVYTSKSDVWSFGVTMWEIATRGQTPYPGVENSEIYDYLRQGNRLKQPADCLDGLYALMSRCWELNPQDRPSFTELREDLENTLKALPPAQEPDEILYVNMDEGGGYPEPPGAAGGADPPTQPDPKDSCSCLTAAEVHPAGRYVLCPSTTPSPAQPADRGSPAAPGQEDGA
Cyclin-dependent kinase 11B (Homo sapiens), sequence (P21127 whole entry): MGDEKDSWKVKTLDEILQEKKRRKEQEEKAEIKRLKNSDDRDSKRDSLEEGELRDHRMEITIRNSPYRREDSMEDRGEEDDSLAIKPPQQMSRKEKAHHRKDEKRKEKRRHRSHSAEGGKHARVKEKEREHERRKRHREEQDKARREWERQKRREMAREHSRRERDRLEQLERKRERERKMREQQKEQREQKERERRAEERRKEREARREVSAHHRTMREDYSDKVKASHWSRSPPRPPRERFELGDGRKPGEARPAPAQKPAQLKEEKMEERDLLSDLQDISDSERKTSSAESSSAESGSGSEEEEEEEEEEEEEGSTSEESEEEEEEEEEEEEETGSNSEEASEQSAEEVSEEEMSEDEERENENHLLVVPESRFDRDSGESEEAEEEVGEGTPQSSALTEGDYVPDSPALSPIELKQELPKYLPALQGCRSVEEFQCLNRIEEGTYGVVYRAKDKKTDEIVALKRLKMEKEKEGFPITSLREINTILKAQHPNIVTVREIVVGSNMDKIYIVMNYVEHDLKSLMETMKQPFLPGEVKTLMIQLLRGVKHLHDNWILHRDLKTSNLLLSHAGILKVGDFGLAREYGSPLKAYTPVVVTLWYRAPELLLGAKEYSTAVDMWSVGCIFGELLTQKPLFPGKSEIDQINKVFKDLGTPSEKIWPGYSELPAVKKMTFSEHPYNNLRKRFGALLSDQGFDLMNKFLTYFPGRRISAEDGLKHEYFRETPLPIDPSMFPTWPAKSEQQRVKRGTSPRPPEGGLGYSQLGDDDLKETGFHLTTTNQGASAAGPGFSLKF
Calcium/calmodulin-dependent protein kinase type 1 (Homo sapiens), sequence (Q14012 whole entry, looked up): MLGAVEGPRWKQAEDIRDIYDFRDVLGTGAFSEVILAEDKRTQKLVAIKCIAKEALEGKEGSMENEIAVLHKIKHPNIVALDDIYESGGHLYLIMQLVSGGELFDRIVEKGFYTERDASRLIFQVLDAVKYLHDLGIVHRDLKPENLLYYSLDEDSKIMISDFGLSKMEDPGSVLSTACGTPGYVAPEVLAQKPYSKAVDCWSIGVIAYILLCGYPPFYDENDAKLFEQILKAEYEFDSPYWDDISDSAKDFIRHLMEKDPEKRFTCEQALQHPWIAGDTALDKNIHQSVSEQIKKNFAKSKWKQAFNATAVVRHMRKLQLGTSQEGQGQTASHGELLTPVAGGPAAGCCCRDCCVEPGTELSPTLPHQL

For `COc1cc(Nc2nc(C)cc(-c3cnn4nc(OC)ccc34)n2)cc(C(F)(F)F)c1`, the % of control [1] was 92%.

Work on `CC(C)(O)[C@H](F)CN1Cc2cc(NC(=O)c3cnn4cccnc34)c(N3CCOCC3)cc2C1=O` yielded a dTM [2] of 1.7 K.

`CC[C@@H]1[C@H](F)C(=O)N[C@@H]1COc1nccc2cc(C(N)=O)c(OC)cc12` [ZIMLOVISERTIB] was tested, and the % of inhibition ([3]; at 0.01 µM) was 0.7%, the % of inhibition ([3]; at 0.04 µM) was -4.1% and the % of inhibition ([3]; at 0.2 µM) was 7.8%. For the same molecule, the % of inhibition ([3]; at 1 µM) was 27.6% and the % of inhibition ([3]; at 5 µM) was 63.2%.

Work on `CCC(=O)N1CCN(c2ccc(-n3c(=O)ccc4cnc5ccc(-c6cnc7ccccc7c6)cc5c43)cc2C(F)(F)F)CC1` yielded a % of control [4] of 97%.

For `Cc1cc([C@@H](C)Nc2ccccc2C(=O)O)c2nc(N3CCOCC3)cc(=O)n2c1` [AZD-6482], the % of control [5] was 99%.

For `Cc1ccc(-c2ccc3c(ccc4sc5c(c43)NC[C@@H](C)NC5=O)n2)cn1`, the % of inhibition [6] was 2%.

Work on `CN(C)CCOc1ccc(-c2nc(-c3ccncc3)c(-c3ccc4c(c3)CC/C4=N\O)[nH]2)cc1` yielded a % of control [7] of 100%.

For `CNC(=O)Nc1ccc(-c2nc(N3CC4CCC(C3)O4)c3cnn(C4CCC5(CC4)OCCO5)c3n2)cc1`, the % of control [8] was 67%.

With `Cc1cc(C)cc([C@@H]2c3cc(C)ccc3NC(=O)CN2C(=O)c2ccc(Br)s2)c1` the % of activity ([9]; at 1 µM) was 97% and the % of activity ([9]; at 10 µM) was 103%.
